Data set [1] addresses T1, AtCXE20 (carboxylesterase 20) (Arabidopsis thaliana, UniProt Q9LVB8).
T1 construct: gene CXE20; recombinant AtCXE20 with 20-amino acid N-terminal peptide fusion including a 6-histidine tag, expressed in E. coli
T1 sequence (Q9LVB8 1-327): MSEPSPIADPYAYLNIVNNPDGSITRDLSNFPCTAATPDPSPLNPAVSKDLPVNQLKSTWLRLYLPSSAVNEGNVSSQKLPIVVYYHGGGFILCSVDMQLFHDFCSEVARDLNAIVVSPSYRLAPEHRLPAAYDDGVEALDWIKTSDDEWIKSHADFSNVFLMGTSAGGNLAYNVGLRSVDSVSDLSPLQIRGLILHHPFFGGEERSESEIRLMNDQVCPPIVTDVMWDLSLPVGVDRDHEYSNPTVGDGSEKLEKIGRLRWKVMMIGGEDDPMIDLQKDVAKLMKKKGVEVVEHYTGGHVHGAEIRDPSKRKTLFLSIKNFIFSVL
Put plainly: esterase inhibition at […] (p-nitrophenyl acetate substrate); also decreased intrinsic fluorescence at […]. Type of data set: biochemical.

In data set [2] the target is T1, AtCXE20 (carboxylesterase 20). Put plainly: esterase assay with p-nitrophenyl acetate, Michaelis-Menten kinetics. Type of data set: biochemical.
Substrate in data set [3]: CC(=O)Oc1ccc([N+](=O)[O-])cc1
The data set can be described thus: purified protein. Type of data set: biochemical, Arabidopsis thaliana. To be noted: catalytic triad S166, H302, D272 (homology model).

Take `CC1=CC(O/C=C2/C(=O)OC3c4ccccc4CC23)OC1=O` (racemic) [GR24, rac-GR24]: the “esterase inhibition at 20 μM (p-nitrophenyl acetate substrate); also decreased i” value in data set [1] is listed as “substantial inhibition was observed with the synthetic SL racemic mixture GR24”. Consider `CC1=C[C@H](O/C=C2/C(=O)O[C@@H]3C4=C(CCCC4(C)C)C[C@H]23)OC1=O` [5-DS, 5-deoxystrigol], for which the affinity in data set [2] corresponds to a Ki of 5 µM.

B1: AtCXE20 (carboxylesterase 20) (Arabidopsis thaliana) (protein)
chain: T1 sequence (Q9LVB8 1-327)
notes: recombinant AtCXE20 with 20-amino acid N-terminal peptide fusion including a 6-histidine tag, expressed in E. coli
For the molecule B1, the Michaelis-Menten constant (Km) in data set [3] worked out at 251 ± 26 µM.

As usually defined, the Ki is the equilibrium dissociation constant of an inhibitor or competing ligand from its target. Lower therefore signals higher affinity. The term Km denotes the concentration of substrate that gives half-maximal velocity.
